Experimental data from ChEMBL document CHEMBL1201862, “PubChem BioAssay data set” (2004).
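The compound was tested at five concentrations on cells cultured in 96-well plates, with a 48-hour exposure period. GI50 marks 50% less growth.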 Calls of active or inactive are those of the source. No stated cut-off is given here; in the data, active = GI50 up to about 1.1 µM and inactive = higher.

Tests used:
Experiment in all cases: growth of human tumour cells (NCI), 48 h
UACC-62 = system: UACC-62
SF-539 = system: SF-539
A549 = system: A549
SNB-19 = system: SNB-19
KM12 = system: KM12
COLO 205 = system: COLO 205
IGROV-1 = system: IGROV-1
OVCAR-4 = system: OVCAR-4
NCI-H460 = system: NCI-H460
HCT-116 = system: HCT-116
UACC-257 = system: UACC-257
ACHN = system: ACHN
SF-295 = system: SF-295
CCRF-CEM = system: CCRF-CEM
SF-268 = system: SF-268
Malme-3M = system: Malme-3M
A498 = system: A498

Measured: GI50

O=C(c1ccccc1)c1c(CC(O)c2cccnc2)n(C(=O)c2ccccc2)c2ccccc12 (stereo not given)
inactive: UACC-62 16.5 µM | SF-539 16.6 µM | A549 29.4 µM | SNB-19 18.9 µM | KM12 18.9 µM | COLO 205 22.3 µM | IGROV-1 19.1 µM | OVCAR-4 15.2 µM | NCI-H460 16.9 µM | HCT-116 15.9 µM | UACC-257 22.4 µM | ACHN 22.9 µM | SF-295 17.4 µM | CCRF-CEM 22.5 µM | SF-268 20 µM | Malme-3M 23.8 µM

C#C[C@H]1CCCCCC1O (stereo not given in full)
inactive: UACC-62 > 100 µM | SF-539 > 100 µM | A549 > 100 µM | SNB-19 > 100 µM | KM12 > 100 µM | COLO 205 > 100 µM | IGROV-1 > 100 µM | OVCAR-4 > 100 µM | NCI-H460 > 100 µM | HCT-116 > 100 µM | UACC-257 > 100 µM | ACHN > 100 µM | SF-295 > 100 µM | A498 > 100 µM | CCRF-CEM 59 µM | SF-268 > 100 µM | Malme-3M 65.6 µM

O=C1c2ccccc2C(=O)N1CCn1nc(-c2ccccc2)cc(-c2ccccc2)c1=O
inactive: UACC-62 51.2 µM | SF-539 > 100 µM | A549 61.5 µM | SNB-19 > 100 µM | KM12 > 100 µM | COLO 205 63.2 µM | IGROV-1 74.8 µM | OVCAR-4 42.1 µM | NCI-H460 26.2 µM | HCT-116 66.8 µM | UACC-257 > 100 µM | ACHN 34.7 µM | SF-295 56 µM | CCRF-CEM 23.2 µM | SF-268 > 100 µM | Malme-3M > 100 µM

c1ccc(N2N=C(c3ccco3)CC2c2ccco2)cc1 (stereo not given)
inactive: UACC-62 91.6 µM | SF-539 > 100 µM | A549 > 100 µM | SNB-19 > 100 µM | KM12 47.4 µM | COLO 205 > 100 µM | IGROV-1 > 100 µM | OVCAR-4 > 100 µM | NCI-H460 66.1 µM | HCT-116 32.5 µM | ACHN 42.6 µM | SF-295 57.1 µM | CCRF-CEM 42.3 µM | SF-268 > 100 µM | Malme-3M > 100 µM

CC1C=C(OC(=O)c2ccccc2)C(=O)C(n2cc(F)c(=O)n(C(=O)c3ccccc3)c2=O)O1 (stereo not given)
inactive: UACC-62 35.3 µM | SF-539 89.5 µM | A549 > 100 µM | SNB-19 > 100 µM | COLO 205 26.9 µM | IGROV-1 > 100 µM | OVCAR-4 52.2 µM | NCI-H460 > 100 µM | HCT-116 32.1 µM | UACC-257 70.1 µM | ACHN 50.5 µM | SF-295 78 µM | CCRF-CEM 18.1 µM | Malme-3M 31 µM

C/C(=C\c1ccccc1)C(O)C(=O)c1nc2ccc(Cl)cc2nc1O (stereo not given)
inactive: UACC-62 > 100 µM | SF-539 > 100 µM | A549 > 100 µM | SNB-19 > 100 µM | KM12 > 100 µM | COLO 205 > 100 µM | IGROV-1 > 100 µM | OVCAR-4 26 µM | NCI-H460 > 100 µM | HCT-116 > 100 µM | UACC-257 > 100 µM | ACHN > 100 µM | SF-295 > 100 µM | A498 > 100 µM | CCRF-CEM 13.6 µM | SF-268 > 100 µM | Malme-3M > 100 µM

C1CCN2CC3CONC3C2C1 (stereo not given)
inactive: UACC-62 > 100 µM | SF-539 > 100 µM | A549 > 100 µM | SNB-19 > 100 µM | KM12 > 100 µM | COLO 205 > 100 µM | IGROV-1 > 100 µM | OVCAR-4 > 100 µM | NCI-H460 > 100 µM | HCT-116 > 100 µM | UACC-257 > 100 µM | ACHN > 100 µM | SF-295 > 100 µM | A498 > 100 µM | CCRF-CEM > 100 µM | SF-268 > 100 µM | Malme-3M > 100 µM

COc1cccc(-c2nccc3c(OCc4ccccc4)c(OC)c(OC)cc23)c1
inactive: UACC-62 > 100 µM | SF-539 > 100 µM | A549 > 100 µM | SNB-19 > 100 µM | KM12 > 100 µM | COLO 205 > 100 µM | IGROV-1 > 100 µM | HCT-116 7.57 µM | UACC-257 > 100 µM | ACHN 54.6 µM | SF-295 > 100 µM | A498 > 100 µM | CCRF-CEM 5.68 µM | SF-268 > 100 µM | Malme-3M 2.94 µM

COCCOCCOCCOc1cccc2c1C(=O)c1cccc(OCCOCCOCCOC)c1C2=O
inactive: UACC-62 > 100 µM | SF-539 > 100 µM | A549 > 100 µM | SNB-19 > 100 µM | COLO 205 > 100 µM | IGROV-1 > 100 µM | OVCAR-4 > 100 µM | NCI-H460 70.6 µM | HCT-116 > 100 µM | UACC-257 > 100 µM | ACHN > 100 µM | SF-295 > 100 µM | A498 > 100 µM | CCRF-CEM 40.1 µM

CN(C)/C(=N\C#N)N(Cc1ccccc1)Cc1ccccc1
inactive: UACC-62 62.4 µM | SF-539 > 100 µM | A549 > 100 µM | SNB-19 > 100 µM | KM12 > 100 µM | COLO 205 74 µM | IGROV-1 > 100 µM | OVCAR-4 > 100 µM | NCI-H460 17.7 µM | HCT-116 53.5 µM | UACC-257 > 100 µM | ACHN > 100 µM | SF-295 68.4 µM | A498 49 µM | CCRF-CEM 44.2 µM | SF-268 98.2 µM | Malme-3M > 100 µM

CC1NOC(=O)C1/N=N/c1ccccc1Cl (stereo not given)
inactive: UACC-62 31.1 µM | SF-539 24.5 µM | A549 63.7 µM | SNB-19 51.1 µM | KM12 64.7 µM | COLO 205 57.7 µM | IGROV-1 73.1 µM | OVCAR-4 39.9 µM | NCI-H460 45.1 µM | HCT-116 37.2 µM | UACC-257 17.8 µM | ACHN 27 µM | SF-295 74.1 µM | A498 17 µM | CCRF-CEM 40.9 µM | SF-268 35.1 µM | Malme-3M 25.5 µM

COCC1N=C(c2ccc(OC)c(OCc3ccccc3)c2OC)O[C@H]1c1ccccc1 (stereo not given in full)
inactive: UACC-62 15.8 µM | SF-539 17.4 µM | A549 24.5 µM | SNB-19 29.9 µM | KM12 21.2 µM | COLO 205 18.1 µM | IGROV-1 32.4 µM | OVCAR-4 20.5 µM | NCI-H460 11.1 µM | HCT-116 11.9 µM | ACHN 12.9 µM | SF-295 25.6 µM | A498 6.19 µM | CCRF-CEM 15.3 µM | SF-268 25.8 µM

O=C1C(=O)N(c2cc(Cl)ccc2Cl)C(=O)C(=O)C1c1nc2ccccc2o1
inactive: UACC-62 > 100 µM | SF-539 > 100 µM | A549 > 100 µM | SNB-19 > 100 µM | KM12 > 31.6 µM | COLO 205 > 100 µM | IGROV-1 > 100 µM | OVCAR-4 > 100 µM | NCI-H460 > 100 µM | HCT-116 > 100 µM | UACC-257 > 100 µM | ACHN > 100 µM | SF-295 > 100 µM | A498 > 100 µM | CCRF-CEM 30.2 µM | SF-268 > 100 µM | Malme-3M > 100 µM

O=C1NN=C(c2ccc([N+](=O)[O-])cc2)C1n1nc(-c2ccccc2)c2ccccc2c1=O (stereo not given)
inactive: UACC-62 > 100 µM | SF-539 > 100 µM | A549 > 80 µM | SNB-19 > 100 µM | KM12 > 100 µM | COLO 205 > 60.8 µM | IGROV-1 > 100 µM | OVCAR-4 > 100 µM | NCI-H460 > 92.5 µM | HCT-116 > 63.8 µM | UACC-257 > 100 µM | ACHN > 100 µM | SF-295 > 100 µM | A498 > 100 µM | CCRF-CEM > 65.5 µM | SF-268 > 100 µM | Malme-3M > 100 µM

CC(=O)NNc1nc(C)c(C(=O)NNC(=O)C(=O)Nc2ccc(Cl)cc2)s1
inactive: UACC-62 > 100 µM | SF-539 > 100 µM | A549 > 100 µM | SNB-19 > 100 µM | KM12 > 100 µM | COLO 205 > 100 µM | IGROV-1 > 100 µM | OVCAR-4 47 µM | NCI-H460 > 100 µM | HCT-116 > 100 µM | UACC-257 > 100 µM | ACHN 54.6 µM | SF-295 > 100 µM | CCRF-CEM 25.3 µM | SF-268 49.7 µM | Malme-3M > 100 µM

COc1cc2ccc3c4c(OC)cc(OC)c(OC)c4c([O-])[n+](C)c3c2cc1OC
inactive: UACC-62 25.1 µM | SF-539 > 32.7 µM | A549 4.01 µM | SNB-19 15.7 µM | KM12 4.37 µM | COLO 205 2.58 µM | IGROV-1 6.98 µM | OVCAR-4 18.1 µM | HCT-116 11.5 µM | UACC-257 17.9 µM | ACHN > 24.8 µM | SF-295 4.47 µM | A498 3.76 µM | SF-268 3.46 µM | Malme-3M 17.5 µM

COc1ccc(C)cc1C1CCC(=O)O1 (stereo not given)
inactive: UACC-62 > 100 µM | SF-539 > 100 µM | A549 > 100 µM | SNB-19 > 100 µM | KM12 > 100 µM | COLO 205 > 100 µM | IGROV-1 > 100 µM | NCI-H460 > 100 µM | HCT-116 > 100 µM | UACC-257 > 100 µM | ACHN > 100 µM | SF-295 > 100 µM | A498 > 100 µM | CCRF-CEM > 100 µM | Malme-3M > 100 µM
